Experimental data taken from patent US20160331871A1, “Medical Devices Containing Nitroprusside and Antimicrobial Agents” (Teleflex Medical Incorporated, priority 2009, published 2016).

Test system: Pseudomonas aeruginosa
Assay: MIC/FIC determination of SNP alone and in combination with antimicrobial agents (96-well microtiter plate, OD 670 nm)
Type: cell-based, Pseudomonas aeruginosa ATCC 27853
Experimental: A few colonies of Pseudomonas aerugionsa ATCC 27853 were removed from secondary working cultures plated on Trypticase Soy Agar (hereinafter “TSA”) with 5% sheep's blood and added to 10 ml of Trypticase Soy Broth (hereinafter “TSB”). The vials were vortexed for approximately 30 seconds and incubated for 4 hours in a shaker incubator. Following incubation, they were removed and vortexed once more. The optical densities of the inoculum suspensions were read at a wavelength of 670 nm. The inoculum suspensions were subsequently diluted in sterile Cation Adjusted Mueller-Hinton Broth (hereinafter “CAMHB”) to a final concentration of 1-5×10^6 cfu/ml.
SNP was dissolved and diluted in sterile deionized water to get working concentrations of 1%, 0.9%, 0.8%, 0.7%, 0.6%, 0.5%, 0.4%, 0.3%, 0.2%, and 0.1% in the wells of a 96-well micro titer plate.
Chlorhexidine diacetate (hereinafter “CHA”) and gentian violet (hereinafter “GV”) were dissolved in sterile water. Rifampin (hereinafter “Rif”) was dissolved in dimethylsulfoxide (hereinafter “DMSO”). Silver nano particles were dispersed in sterile water.
A sterile 96 well micro titer plate was used to test the following: SNP alone and SNP in combination with CHA, GV, Rif, and Silver at concentrations as stated above. All tests were performed in triplicate.
Once all test wells had been filled, the lid of the plate was replaced and the plate was inserted into a Ziplock™ bag and sealed to reduce evaporation. Each plate was incubated without shaking at 37° C. for 18-46 hours depending on the microorganism.
After the appropriate incubation time had been met, the micro titer plate was removed from the incubator. The plate was then read on a Bio-Tek plate reader at a wavelength of 670 nm with the lid off.

| MIC/FIC (SNP 0% (agent alone)) | MIC/FIC (in combination with SNP 0.2%) | MIC/FIC (in combination with SNP 0.4%) | MIC/FIC (in combination with SNP 0.6%) | Compound | inhibitory concentration in combination with SNP as compared to alone |
| --- | --- | --- | --- | --- | --- |
| – | – | – | – | CC(=O)O.CC(=O)O.NC(=N\CCCCCC/N=C(N)/N=C(\N)Nc1ccc(Cl)cc1)/N=C(\N)Nc1ccc(Cl)cc1 [CHA, Chlorhexidine diacetate] | lower inhibitory concentrations |
| 32 PPM | 4 PPM | 4 PPM | 0 PPM | CN(C)c1ccc(C(=C2C=CC(=[N+](C)C)C=C2)c2ccc(N(C)C)cc2)cc1 [GV, gentian violet] | lower inhibitory concentrations |
| 16 PPM | 16 PPM | 2-4 PPM | 0 PPM | CO[C@H]1/C=C/O[C@@]2(C)Oc3c(C)c(O)c4c(O)c(c(/C=N/N5CCN(C)CC5)c(O)c4c3C2=O)NC(=O)/C(C)=C\C=C\[C@H](C)[C@H](O)[C@@H](C)[C@@H](O)[C@@H](C)[C@H](OC(C)=O)[C@@H]1C [Rifampin] | lower inhibitory concentrations |

| Compound | MIC/FIC (SNP 0% (agent alone)) | MIC/FIC (in combination with SNP 0.2%) | MIC/FIC (in combination with SNP 0.4%) | MIC/FIC (in combination with SNP 0.6%) | inhibitory concentration in combination with SNP as compared to alone |
| --- | --- | --- | --- | --- | --- |
| N=C(NCCCCCCNC(=N)NC(=N)Nc1ccc(Cl)cc1)NC(=N)Nc1ccc(Cl)cc1.Nc1ccc(P(=O)(O)O)cc1.Nc1ccc(P(=O)(O)O)cc1 [CHP, chlorhexidine dipalmitate] | 4 PPM | 4 PPM | 1 PPM | 0 PPM | – |
